Common to all, as to assay type: biochemical
For one test, the target named is JAK1 (Homo sapiens (Human), UniProt P23458). The test can be described thus: JAK1 LANCE Ultra kinase assay. The following applies: for IC50: 38 uM ATP; for JAK2/JAK1: ratio of IC50 JAK2 to IC50 JAK1. The procedure: Inhibition test on activity of JAK kinase in vitro was carried out by the following methods.
JAK1 LANCE® Ultra assay, JAK2 LANCE® Ultra assay and JAK3 LANCE® Ultra assay were used to carry out the test separately, and kits of the above assays were supplied by PerkinElmer. […]
JAK1, JAK2 and JAK3 kinase, ATP and substrates were dissolved and diluted with buffers.
A test liquid was 2 nM Eu-W1024 anti-phosphotyrosine (PerkinElmer, AD0069). A stop buffer was 10 mM edetic acid (Intech, 1842C505).
2.5 μl of an 8-fold solution of the compound and 5 μl of a 4-fold solution of JAK1 or JAK2 or JAK3 kinase were added into a 384-well plate, respectively, and reacted for 10 minutes at room temperature. 2.5 μl of an 8-fold solution of ULight™-JAK-1 peptide/ATP was added and reacted for 90 minutes at room temperature. Finally, 5 μl of 4-fold edetic acid stop buffer and 5 μl of 4-fold test liquid of Eu-W1024 anti-phosphotyrosine were added and incubated for 60 minutes.
According to the formula: percentage of inhibition rate=(maximum value−transform value)/(maximum value−minimum value)×100, inhibition rate of each compound at various concentrations was calculated. The maximum value was the reference value of dimethyl sulfoxide added into the well plate, the minimum value was the blank value, and the transform value is the value obtained by the well of each compound. The IC50 values of the corresponding compounds were then obtained by fitting by using the XLFit fitting tool in excel.

The target of another test is JAK2 (Homo sapiens (Human), UniProt O60674). As to the kind of experiment: JAK2 LANCE Ultra kinase assay. The following applies: 12 uM ATP. In general terms: In TR-FRET formats the signal depends on donor and acceptor labels being close together.
The target in a further test is JAK3 (Homo sapiens (Human), UniProt P52333). The test can be described thus: JAK3 LANCE Ultra kinase assay. The following applies: 4 uM ATP.
Sequence of JAK3 (P52333 whole entry): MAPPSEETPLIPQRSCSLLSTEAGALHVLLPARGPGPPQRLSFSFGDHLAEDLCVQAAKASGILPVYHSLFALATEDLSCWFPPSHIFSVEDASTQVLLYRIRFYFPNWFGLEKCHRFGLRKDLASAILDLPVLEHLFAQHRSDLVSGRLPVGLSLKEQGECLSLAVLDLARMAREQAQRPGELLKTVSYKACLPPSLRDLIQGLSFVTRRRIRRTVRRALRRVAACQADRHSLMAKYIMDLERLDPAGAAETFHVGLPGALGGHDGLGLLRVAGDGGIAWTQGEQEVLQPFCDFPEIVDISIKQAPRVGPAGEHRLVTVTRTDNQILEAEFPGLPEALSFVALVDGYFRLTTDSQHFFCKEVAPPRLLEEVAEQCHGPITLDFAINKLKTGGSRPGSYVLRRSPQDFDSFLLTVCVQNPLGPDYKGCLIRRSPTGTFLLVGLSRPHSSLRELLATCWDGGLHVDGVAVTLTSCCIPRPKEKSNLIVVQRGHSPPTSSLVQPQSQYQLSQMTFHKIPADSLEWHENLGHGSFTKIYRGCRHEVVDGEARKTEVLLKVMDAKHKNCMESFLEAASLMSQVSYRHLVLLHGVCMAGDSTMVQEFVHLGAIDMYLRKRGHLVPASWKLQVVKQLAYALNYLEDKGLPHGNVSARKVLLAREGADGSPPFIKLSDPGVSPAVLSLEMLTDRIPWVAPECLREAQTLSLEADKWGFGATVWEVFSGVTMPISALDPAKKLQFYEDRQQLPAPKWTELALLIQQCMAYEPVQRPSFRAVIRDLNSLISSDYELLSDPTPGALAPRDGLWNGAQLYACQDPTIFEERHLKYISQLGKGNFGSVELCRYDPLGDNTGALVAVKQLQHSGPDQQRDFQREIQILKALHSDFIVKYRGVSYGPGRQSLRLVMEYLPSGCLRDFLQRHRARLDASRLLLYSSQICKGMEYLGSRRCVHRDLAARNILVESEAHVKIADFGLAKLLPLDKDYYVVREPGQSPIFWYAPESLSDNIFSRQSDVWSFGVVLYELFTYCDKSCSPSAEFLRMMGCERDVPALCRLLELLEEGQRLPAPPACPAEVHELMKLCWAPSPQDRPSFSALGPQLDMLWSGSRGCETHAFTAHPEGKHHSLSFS

Sequence of JAK2 (O60674 whole entry): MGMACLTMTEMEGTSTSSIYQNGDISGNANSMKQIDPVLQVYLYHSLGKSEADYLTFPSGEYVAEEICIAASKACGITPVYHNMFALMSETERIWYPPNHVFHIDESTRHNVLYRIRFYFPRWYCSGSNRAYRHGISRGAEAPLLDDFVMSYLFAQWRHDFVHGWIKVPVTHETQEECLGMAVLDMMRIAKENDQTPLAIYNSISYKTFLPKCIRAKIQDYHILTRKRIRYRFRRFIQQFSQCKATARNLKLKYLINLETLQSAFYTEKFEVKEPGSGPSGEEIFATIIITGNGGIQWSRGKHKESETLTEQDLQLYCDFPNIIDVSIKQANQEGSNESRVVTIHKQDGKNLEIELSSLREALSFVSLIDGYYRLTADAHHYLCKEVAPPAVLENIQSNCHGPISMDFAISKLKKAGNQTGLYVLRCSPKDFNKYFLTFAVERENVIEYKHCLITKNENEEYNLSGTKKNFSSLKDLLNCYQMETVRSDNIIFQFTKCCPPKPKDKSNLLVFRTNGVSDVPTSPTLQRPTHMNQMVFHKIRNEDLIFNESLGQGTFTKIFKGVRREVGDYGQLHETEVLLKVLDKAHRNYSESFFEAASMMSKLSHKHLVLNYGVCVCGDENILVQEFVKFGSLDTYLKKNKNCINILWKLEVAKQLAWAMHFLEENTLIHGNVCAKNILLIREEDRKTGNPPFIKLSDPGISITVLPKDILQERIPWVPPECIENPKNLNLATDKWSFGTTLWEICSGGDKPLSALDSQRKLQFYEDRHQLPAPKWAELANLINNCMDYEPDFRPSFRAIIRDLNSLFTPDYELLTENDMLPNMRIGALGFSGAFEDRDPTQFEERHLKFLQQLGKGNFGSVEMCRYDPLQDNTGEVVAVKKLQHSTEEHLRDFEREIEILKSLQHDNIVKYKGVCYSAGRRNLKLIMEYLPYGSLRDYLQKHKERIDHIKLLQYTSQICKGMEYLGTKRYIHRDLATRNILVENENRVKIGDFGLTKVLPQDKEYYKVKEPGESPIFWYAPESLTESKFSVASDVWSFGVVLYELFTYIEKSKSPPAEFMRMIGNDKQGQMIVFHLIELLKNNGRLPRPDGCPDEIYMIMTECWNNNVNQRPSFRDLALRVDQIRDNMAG
Sequence of JAK1 (P23458 whole entry): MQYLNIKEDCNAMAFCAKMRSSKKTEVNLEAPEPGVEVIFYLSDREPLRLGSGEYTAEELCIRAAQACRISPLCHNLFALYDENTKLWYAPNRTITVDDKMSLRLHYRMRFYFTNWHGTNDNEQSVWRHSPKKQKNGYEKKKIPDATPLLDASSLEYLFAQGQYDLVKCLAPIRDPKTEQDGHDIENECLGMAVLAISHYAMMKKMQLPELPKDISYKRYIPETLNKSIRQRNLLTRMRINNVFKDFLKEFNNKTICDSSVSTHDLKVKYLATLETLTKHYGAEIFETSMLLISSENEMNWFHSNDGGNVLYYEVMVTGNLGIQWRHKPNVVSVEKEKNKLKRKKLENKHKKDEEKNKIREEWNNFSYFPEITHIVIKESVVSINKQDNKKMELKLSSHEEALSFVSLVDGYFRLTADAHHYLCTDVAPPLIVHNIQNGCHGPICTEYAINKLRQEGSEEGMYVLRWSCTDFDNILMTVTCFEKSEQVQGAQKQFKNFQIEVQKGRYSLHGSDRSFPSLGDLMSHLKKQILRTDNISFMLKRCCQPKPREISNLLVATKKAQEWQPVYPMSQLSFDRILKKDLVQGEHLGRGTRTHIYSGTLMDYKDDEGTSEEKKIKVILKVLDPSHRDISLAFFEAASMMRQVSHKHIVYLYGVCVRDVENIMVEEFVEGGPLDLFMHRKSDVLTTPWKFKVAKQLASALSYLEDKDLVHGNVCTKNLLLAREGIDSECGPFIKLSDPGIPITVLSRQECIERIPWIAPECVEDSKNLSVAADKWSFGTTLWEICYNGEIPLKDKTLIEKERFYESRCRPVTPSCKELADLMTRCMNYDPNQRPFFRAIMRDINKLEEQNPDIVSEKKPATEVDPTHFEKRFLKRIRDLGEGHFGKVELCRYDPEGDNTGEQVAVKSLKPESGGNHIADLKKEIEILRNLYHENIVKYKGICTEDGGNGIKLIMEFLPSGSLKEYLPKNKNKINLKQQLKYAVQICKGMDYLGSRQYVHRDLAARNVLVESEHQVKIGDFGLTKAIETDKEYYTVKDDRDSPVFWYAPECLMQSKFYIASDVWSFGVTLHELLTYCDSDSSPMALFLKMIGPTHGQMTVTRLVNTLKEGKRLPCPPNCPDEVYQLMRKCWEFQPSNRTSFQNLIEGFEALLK

By IC50 is commonly meant the concentration that inhibits the measured activity by half. A higher IC50 goes with lower potency. Turning to `CNCC1CCN(S(=O)(=O)C[C@H]2CC[C@H](N(C)c3c(C#N)cnc4[nH]ccc34)CC2)C1` (stereo partly drawn) [Compound H67, 4-(methyl-(trans-4-(((3-((methylamino)methyl)pyrrolidin-1-yl)sulfonyl)methyl)cyclohexyl)amino)-1H-pyrrolo[2,3-b]pyridin-5-carbonitrile], the 50% inhibitory concentration (IC50) against JAK1 was 0.67 nM; on JAK2, 9.5 nM; against JAK3, 76 nM. The JAK2/JAK1 on JAK1 came to 14.18.

In the case of `COCC1CCN(S(=O)(=O)C[C@H]2CC[C@H](N(C)c3c(C#N)cnc4[nH]ccc34)CC2)C1` (stereo partly drawn) [Compound H68, 4-((trans-4-(((3-(methoxymethyl)pyrrolidin-1-yl)sulfonyl)methyl)cyclohexyl)(methyl)amino)-1H-pyrrolo[2,3-b]pyridin-5-carbonitrile], the values for the IC50 at JAK1, against JAK2 and against JAK3 were 6.87 nM, 122 nM and 386 nM, respectively. Besides, at JAK1, the JAK2/JAK1 worked out at 17.76.

For the compound `CN(c1c(C#N)cnc2[nH]ccc12)[C@H]1CC[C@H](CS(=O)(=O)N2CCC(CO)C2)CC1` (stereo partly drawn) [Compound H69, 4-((trans-4-(((3-(hydroxymethyl)pyrrolidin-1-yl)sulfonyl)methyl)cyclohexyl)(methyl)amino)-1H-pyrrolo[2,3-b]pyridin-5-carbonitrile], the half-maximal inhibitory concentration (IC50) turned out to be 0.81 nM against JAK1, 7.3 nM against JAK2 and 90 nM against JAK3. For the same compound, the JAK2/JAK1 on JAK1 was found to be 9.01.

Take `CN(c1c(C#N)cnc2[nH]ccc12)[C@@H]1CC[C@H](CS(=O)(=O)N2CCC(CO)C2)C1` (stereo partly drawn) [Compound H71]: the results for the 50% inhibitory concentration (IC50) against JAK1, at JAK2 and against JAK3 were 1.13 nM, 9.8 nM and 70 nM, respectively. In addition, the JAK2/JAK1 on JAK1 stood at 8.67.

With `N#Cc1cnc2[nH]ccc2c1N[C@H]1CN(C(=O)NCC(F)(F)F)CC12CC2` [Compound H72, (R)-7-((5-cyano-1H-pyrrolo[2,3-b]pyridin-4-yl)amino)-N-(2,2,2-trifluoroethyl)-5-azaspiro[2.4]heptane-5-carboxamide], the 50% inhibitory concentration (IC50) on JAK1 turned out to be 10.3 nM; against JAK2 it was 29 nM; at JAK3 it was 75 nM. For the same compound, the JAK2/JAK1 on JAK1 turned out to be 2.82.

As to `CCC1CN(C(=O)CC#N)CC1Nc1c(C#N)cnc2[nH]ccc12` (stereo not drawn) [Compound H78, 4-((4-ethyl-1-(2-cyanoacetyl)pyrrolidin-3-yl)amino)-1H-pyrrolo[2,3-b]pyridin-5-carbonitrile], the IC50 on JAK1 was 6 nM; at JAK2, 16 nM; on JAK3 it was 42 nM. Further, the JAK2/JAK1 on JAK1 was found to be 2.67.

On to `CC[C@@H]1CN(C(=O)Nc2nc(OC)ns2)C[C@@H]1Nc1c(C#N)cnc2[nH]ccc12` [Compound H80, 4-(((cis)-4-ethyl-1-(3-methoxy-1,2,4-thiadiazole-5-aminocarbonyl)pyrrolidin-3-yl)amino)-1H-pyrrolo[2,3-b]pyridin-5-carbonitrile], for which the IC50 against JAK1 was determined as 2.9 nM; at JAK2 it was 18.6 nM; at JAK3 it was 152 nM. In addition, the JAK2/JAK1 on JAK1 was found to be 6.41.

On to `CCC1CN(C(=O)NCC2CC2)CC1Nc1c(C#N)cnc2[nH]ccc12` (stereo not drawn) [Compound H82, 3-((5-cyano-1H-pyrrolo[2,3-b]pyridin-4-yl)amino)-4-ethyl-N-(cyclopropylmethyl)pyrrolidin-1-carboxamide], for which the figures for the half-maximal inhibitory concentration (IC50) at JAK1, against JAK2 and against JAK3 were 8.9 nM, 69 nM and 172 nM, respectively. Further, the JAK2/JAK1 on JAK1 was 7.75.

As to `CCC1CN(C(=O)NCC(F)F)CC1Nc1c(C#N)cnc2[nH]ccc12` (stereo not drawn) [Compound H87, 3-((5-cyano-1H-pyrrolo[2,3-b]pyridin-4-yl)amino)-N-(2,2-difluoroethyl)-4-ethylpyrrolidin-1-carboxamide], the 50% inhibitory concentration (IC50) against JAK1 amounted to 5.1 nM; against JAK2, 45 nM; at JAK3, 73 nM. For the same compound, on JAK1, the JAK2/JAK1 is given as 8.82.

(Values after patent publication US12398141B2 (SHANGHAI SYNERGY PHARMACEUTICAL SCIENCES CO., LTD, priority 2019, dated 2025).)
